The values that follow come from patent publication US12465605B2, “Methods and materials for gender-dependent treatment of cardiovascular dysfunction” (Mayo Foundation for Medical Education and Research, priority 2019, dated 2025).

Common to all, as to format: cell-based
The subject of data set [1] is Osterix (BMP target gene). Briefly: Osterix mRNA in aortic valve interstitial cells treated with sGC agonists. The note with it: for Osterix expression: 24 hours. How it is done: (§1) In vitro cell culture studies: Aortic valve interstitial cells were isolated using an outgrowth method, and were expanded in DMEM/F-10 medium with 10% FBS and studied in passages 2-10. Cells were treated for 24 hours under each experimental condition, at which point mRNA was harvested using lysis buffer. After mRNA isolation and reverse transcription, gene expression was measured using quantitative real-time RT-PCR and Taqman primers. Changes in gene expression were assessed by the ddCt method and expressed as fold-change normalized to control conditions.
In vitro studies were conducted in aortic valve interstitial cells to determine the effects of several sGC agonists on mRNA levels of Osterix, a BMP target gene. Cells were treated with nelociguat, vericiguat, lificiguat, or BAY41-8543, and Osterix mRNA levels were determined. Nelociguat and BAY41-8543 were used at concentrations ranging from 1 nM to 10 μM, while vericiguat and lificiguat were used at concentrations ranging from 1 nM to 1 μM.

For data set [2], the system named is LPA-induced BMP signaling. Kind of data set: LPA-induced BMP signaling (Osterix mRNA) in aortic valve interstitial cells. As to conditions: treatment with 18:0 lyso-PA alone. How it is done: as §1
Additional studies were conducted in aortic valve interstitial cells to examine the effects of ataciguat on LPA-induced BMP signaling and BMP target gene expression. Cells were treated with 18:0 lyso-PA, with or without ataciguat, and Osterix mRNA levels were determined.

In the next data set the target is T1, sGC (Mus musculus, UniProt O54865).
T1 construct: endogenous in cells; host or cells: primary mouse aortic valve interstitial cells (mVICs) from C57BL6/J mice
T1 sequence (O54865 1-620): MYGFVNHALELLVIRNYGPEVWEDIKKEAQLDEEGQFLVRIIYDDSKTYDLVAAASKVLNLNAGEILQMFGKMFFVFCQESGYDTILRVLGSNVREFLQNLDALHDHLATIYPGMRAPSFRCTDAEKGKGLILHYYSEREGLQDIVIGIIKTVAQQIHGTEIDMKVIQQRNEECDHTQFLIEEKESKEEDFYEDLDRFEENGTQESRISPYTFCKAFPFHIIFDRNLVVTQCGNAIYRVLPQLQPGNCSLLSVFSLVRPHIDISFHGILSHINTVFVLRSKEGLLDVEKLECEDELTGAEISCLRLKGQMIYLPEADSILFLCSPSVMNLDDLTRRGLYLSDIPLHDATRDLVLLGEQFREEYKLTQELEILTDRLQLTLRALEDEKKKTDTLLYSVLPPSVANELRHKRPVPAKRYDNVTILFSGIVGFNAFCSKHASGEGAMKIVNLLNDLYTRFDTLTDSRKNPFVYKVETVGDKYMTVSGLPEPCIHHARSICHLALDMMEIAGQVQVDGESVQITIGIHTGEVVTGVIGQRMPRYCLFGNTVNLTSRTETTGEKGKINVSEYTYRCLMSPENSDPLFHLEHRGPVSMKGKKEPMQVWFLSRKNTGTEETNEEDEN
T1 sequence (Q9ERL9 1-691 partner): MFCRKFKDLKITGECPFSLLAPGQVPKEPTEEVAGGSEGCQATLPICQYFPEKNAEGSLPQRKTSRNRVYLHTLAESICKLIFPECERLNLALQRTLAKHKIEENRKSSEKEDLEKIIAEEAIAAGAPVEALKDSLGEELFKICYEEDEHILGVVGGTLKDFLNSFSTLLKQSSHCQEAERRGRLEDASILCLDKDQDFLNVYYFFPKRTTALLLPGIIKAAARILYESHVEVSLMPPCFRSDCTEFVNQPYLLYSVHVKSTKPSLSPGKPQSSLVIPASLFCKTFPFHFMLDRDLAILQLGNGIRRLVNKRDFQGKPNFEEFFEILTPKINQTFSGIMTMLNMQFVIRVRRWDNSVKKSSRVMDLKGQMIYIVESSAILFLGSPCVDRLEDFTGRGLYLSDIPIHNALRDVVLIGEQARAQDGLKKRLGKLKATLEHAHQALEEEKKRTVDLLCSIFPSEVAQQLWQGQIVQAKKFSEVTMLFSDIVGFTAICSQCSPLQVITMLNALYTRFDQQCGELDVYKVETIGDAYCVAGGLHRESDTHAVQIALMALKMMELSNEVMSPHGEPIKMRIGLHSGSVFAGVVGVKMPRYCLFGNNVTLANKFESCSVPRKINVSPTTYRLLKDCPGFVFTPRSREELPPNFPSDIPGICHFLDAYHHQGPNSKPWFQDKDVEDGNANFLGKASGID
Kind of data set: sGC signaling (phospho-VASP239) in mouse aortic valve interstitial cells. The note with it: otherwise naïve mVICs, vs vehicle-treated cells. How it is done: To confirm that ataciguat effectively activated sGC in cells, mouse aortic valve interstitial cells (mVICs) were isolated from C57BL6/J mice treated with ataciguat or other sGC agonists as internal controls. […] To determine whether ataciguat could attenuate signaling cascades central to the initiation and progression of valve calcification in vitro, cells were treated with BMP2 with or without ataciguat. In these studies, ataciguat reduced phospho-SMAD1/5/8 signaling (e.g., canonical BMP signaling) as well as expression of osteogenic genes induced by BMP2 (e.g., osterix).

On to `Nc1nc(-c2nn(Cc3ccccc3F)c3ncccc23)nc(N)c1N1CCOCC1` [BAY41-8543, 2-[1-[(2-fluorophenyl)methyl]-1H-pyrazolo[3,4-b]pyridin-3-yl]-5-(4-morpholinyl)-4,6-pyrimidinediamine], for which the Osterix expression result in data set [1] (at 10 μM) is reported as “highly efficacious”; in data set [1] (tested 1 nM to 10 μM), “dose-dependent reductions”.
For `OCc1ccc(-c2nn(Cc3ccccc3)c3ccccc23)o1` [lificiguat], the Osterix expression entry in data set [1] (tested 1 nM to 1 μM) was “lose efficacy at higher concentrations”.
As for lysophosphatidic acid [18:0 lyso-PA], the “expression of Osterix” value in data set [2] is “increased expression”.
Consider `COC(=O)Nc1c(N)nc(-c2nn(Cc3ccccc3F)c3ncc(F)cc23)nc1N` [vericiguat, methyl (4,6-diamino-2-(5-fluoro-1-(2-fluorobenzyl)-1H-pyrazolo[3,4-b]pyridin-3-yl)pyrimidin-5-yl)carbamate], for which, in data set [1] (tested 1 nM to 1 μM), the Osterix expression entry is recorded as “only at the highest dose tested”.
Consider `COC(=O)Nc1c(N)nc(-c2nn(Cc3ccccc3F)c3ncccc23)nc1N` [nelociguat, methyl (4,6-diamino-2-(1-(2-fluorobenzyl)-1H-pyrazolo[3,4-b]pyridin-3-yl)pyrimidin-5-yl)carbamate], for which the “concentration that may be cytotoxic” value in data set [1] (suggested from loss of effect at the highest concentration) was at least 10 µM.
Regarding `CCN(CC)/[N+]([O-])=N/O.CCNCC` [DEA-NONOATE], the “sGC-dependent signaling (phospho-VASP^239 levels)” value at sGC is recorded as “increased phospho-VASP^239 levels to a similar extent”.
